From EP0755938B1, “Ligated polyoxometalates and method for their synthesis” (THE B.F. GOODRICH COMPANY, priority 1995, dated 1997)

Legend:
[1] = Solubility test in hexane (Table 1); assay type: physicochemical
[2] = Solubility of the isolated product in organic solvents, as noted in the synthesis examples; assay type: physicochemical
[3] = Catalytic activity test: gel time in polymerizing dicyclopentadiene under RIM conditions; settings: 4°C temperature rise from the initial temperature of 40°C; A and B components mixed in adiabatic chamber; Component B 0.66 wt. percent polyoxometalate catalyst
Procedure: The ligated polyoxomolybdate produced in Examples 1-4 were tested for their activity in polymerizing dicyclopentadiene under conditions of a RIM procedure.
Reaction injection molding components were prepared with the following recipes: Component A contained 88.2 wt. percent dicyclopentadiene/7.17 wt. percent cyclopentadiene trimer/3.52 wt. percent butadiene elastomer/0.5 wt. percent diethylaluminumchloride/0.25 wt. percent 2,4-dimethyl-3-pentanol/0.09 wt. percent n-propyl alcohol/0.18 wt. percent silicon tetrachloride.
Component B contained 88.63 wt. percent dicyclopentadiene/7.19 wt. percent cyclopentadiene trimer 3.52 wt. percent butadiene elastomer/0.66 wt. percent polyoxometalate catalyst.
The A and B components were reactivity tested using two pistons and a static mixer. The A and B components were first drawn into their respective piston of the reactivity tester. The components were then heated to 40°C inside the pistons. Next, the contents of the A and B component pistons of the reactivity tester were emptied through a static mixer into a disposable adiabatic chamber.
The temperature increase during the polymerization in the adiabatic chamber was monitored. The gel time is defined as a 4°C temperature rise from the initial temperature of 40°C.

Row | Substance | soluble in cyclohexane [2] | soluble in dicyclopentadiene [2] | soluble in hexane [2] | further results
1 | [(C8H17)3NCH3]4{(C6H5P)2Mo5O21} [Example 5] | soluble | soluble | – | Hexane soluble ([1]; numeric bound): < 5%
2 | [(C12H25)3NH]2{(C6H4O2)2MoO2} [Example 32] | soluble | – | – | –
3 | [(C12H25)3NH]2{(H3NC6H4P)2Mo5O21} [Example 16] | soluble | – | soluble | Hexane soluble ([1]; result in words): soluble
4 | [(C12H25)3NH]2{[C10H6(O)(COO)]2Mo2O5} [Example 27] | soluble | – | soluble | –
5 | [(C12H25)3NH]2{[CH3C6H3(O)(COO)]2Mo2O5} [Example 28] | soluble | – | soluble | –
6 | [(C12H25)3NH]4{(C4H9P)2Mo5O21} [Example 17] | readily soluble | – | – | Hexane soluble ([1]; result in words): soluble; soluble in hot hexane [2]: readily soluble
7 | [(C12H25)3NH]4{(C6H5OP)2Mo5O21} [Example 12] | – | readily soluble | readily soluble | Hexane soluble ([1]; numeric bound): > 99%
8 | [(C12H25)3NH]4{(C6H5P)2Mo5O21} [Example 1] | – | – | – | gel time [3]: 4.4 min
9 | [(C12H25)3NH]4{(C6H5P)2Mo5O21} [Example 2] | – | readily soluble | readily soluble | gel time [3]: 3.7 min; Hexane soluble ([1]; numeric bound): > 99%
10 | [(C12H25)3NH]4{(C6H5P)2Mo5O21} [Example 10] | – | readily soluble | readily soluble | –
11 | [(C12H25)3NH]4{(C6H5P)2Mo5O21} [Example 33] | soluble | – | soluble | –
12 | [(C12H25)3NH]4{(CH3)3CP)2Mo5O21} [Example 8] | – | – | – | Hexane soluble ([1]; result in words): soluble; soluble in cyclohexane/hexane mixture ([2]; cyclohexane/hexane mixture): soluble
13 | [(C12H25)3NH]4{(CH3P)2Mo5O21} [Example 15] | soluble | – | – | Hexane soluble ([1]; result in words): soluble; soluble in hot hexane [2]: soluble
14 | [(C12H25)3NH]4{(HOP)2Mo5O21} [Example 38] | soluble | – | soluble | –
15 | [(C12H25)3NH]4{(HP)2Mo5O21} [Example 20] | soluble | – | – | –
16 | [(C12H25)3NH]4{[(HOCH2)2CHOP)]2Mo5O21} [Example 13] | – | readily soluble | readily soluble | Hexane soluble ([1]; numeric bound): > 99%
17 | [(C12H25)3NH]4{[C6H4(O)(COO)]2Mo4O12} [Example 26] | soluble | – | soluble | –
18 | [(C12H25)3NH]4{[CH3CH(O)(COO)]2Mo4O12} [Example 22] | soluble | – | soluble | –
19 | [(C18H37)0.65C16H33)0.35(C14H29)0.05NH]4{(C6H5P)2Mo5O21} [Example 7] | soluble | soluble | soluble | Hexane soluble ([1]; numeric bound): > 99%
20 | [(i-C10H21)3NH]4{(C6H5P)2Mo3O21} [Example 3] | – | readily soluble | readily soluble | gel time [3]: 3.4 min; Hexane soluble ([1]; numeric bound): > 99%
21 | [C12H25NH]4{[HOC(O)CH2CH2P]2Mo5O21]} [Example 14] | – | – | – | Hexane soluble ([1]; result in words): soluble

Further lines, with some results ahead:

Row | soluble in cyclohexane [2] | soluble in dicyclopentadiene [2] | soluble in hexane [2] | Substance | further results
22 | soluble | – | soluble | [(C12H25)3NH4{(C6H5P)2Mo5O21} [Example 34] | –
23 | soluble | – | soluble | [(C12H25)3NH]2{[(OOC)CH2CH(O)(COO)]2Mo4O12} [Example 30] | –
24 | soluble | – | soluble | [(C12H25)3NH]2{[Br2C6H2(O)(COO)]2MoO2} [Example 29] | –
25 | soluble | – | soluble | [(C12H25)3NH]2{[C6H4(O)(COO)]2Mo2O5} [Example 24] | –
26 | soluble | – | soluble | [(C12H25)3NH]2{[CH3CH(O)(COO)]2Mo2O5} [Example 23] | –
27 | – | readily soluble | readily soluble | [(C12H25)3NH]4{(C6H5P)2Mo5O21} [Example 19] | –
28 | soluble | – | soluble | [(C12H25)3NH]4{(C6H5P)2Mo5O21} [Example 35] | –
29 | – | soluble | soluble | [(C12H25)3NH]4{(C6H5P)2W5O21} [Example 9] | Hexane soluble ([1]; numeric bound): > 99%
30 | readily soluble | – | – | [(i-C8H17)3NH]4{(C6H5P)2Mo5O21} [Example 4] | gel time [3]: 2.5 min; Hexane soluble ([1]; numeric bound): < 5%; soluble in hot hexane [2]: readily soluble
